The record followed here is the SangsterLogP compilation.

The series is described as follows: method code SF-AS, from DOI: 10.1271/bbb1961.38.1521.

Molecules are shown by their SMILES.

The compound `CNC(=O)Oc1cccc(C(C)(C)C)c1` showed a logP of 2.93.

Regarding `CNC(=O)Oc1ccc(Cl)cc1`, the logP stood at 2.01.

As to `CNC(=O)Oc1ccccc1Br`, the logP was 1.77. Compound `CCOc1ccccc1OC(=O)NC` had a lipophilicity (logP) of 1.24. As for `CNC(=O)Oc1cccc(Br)c1`, the figure is 2.25. As for `CNC(=O)Oc1ccccc1Cl`, the figure is 1.64. As for `CCCc1ccc(OC(=O)NC)cc1`, the figure is 2.72; as for `CCc1ccccc1OC(=O)NC`, 1.93; as for `CNC(=O)Oc1cccc(OC(C)C)c1`, 1.96. With `CCCc1ccccc1OC(=O)NC`, the logP is 2.4. As for `CCC(=O)c1ccc(OC(=O)NC)cc1`, the figure is 1.55. Regarding `CNC(=O)Oc1ccccc1C#N`, the logP worked out at 0.86. As for `CNC(=O)Oc1cccc(Cl)c1`, the figure is 2.03. As to `CNC(=O)Oc1ccc(Cl)c(Cl)c1`, the logP amounted to 2.8. Compound `CNC(=O)Oc1cc(Cl)cc(Cl)c1` registered a logP of 3.03. As for `CNC(=O)Oc1cc(C)cc(C(C)C)c1`, the figure is 3.1; as for `CNC(=O)Oc1ccc(C#N)cc1`, 0.95; as for `CNC(=O)Oc1ccccc1C`, 1.46. For `CNC(=O)Oc1cc(C)ccc1C(C)C` the value was 2.84; for `CNC(=O)Oc1ccc([N+](=O)[O-])cc1`, 1.47. The compound `CNC(=O)Oc1cccc(C=O)c1` registered a logP of 0.92. In the case of `CNC(=O)Oc1ccc(SC)c(C)c1`, the logP is 2.47. `CNC(=O)Oc1ccccc1I` gave a logP of 1.96. Regarding `CNC(=O)Oc1cc(C)cc(C(C)(C)C)c1`, the logP was 3.35. As for `CCCc1cccc(OC(=O)NC)c1`, the log partition coefficient (logP) stood at 2.64. As for `CNC(=O)Oc1ccccc1OC`, the figure is 0.81; as for `CNC(=O)Oc1cc(C)ccc1C`, 2.03. In turn, `CCCCOc1ccc(OC(=O)NC)cc1` came in with a logP of 2.86. For `CNC(=O)Oc1ccc2ccccc2c1` the value was 2.56; for `CNC(=O)Oc1ccc(C(C)(C)C)c(C)c1`, 3.38; for `CNC(=O)Oc1ccc(S(C)(=O)=O)cc1`, 0.34. As for `CNC(=O)Oc1cccc2ccccc12`, the figure is 2.36; as for `CNC(=O)Oc1ccc(Br)cc1`, 2.17; as for `CNC(=O)Oc1ccccc1C(C)(C)C`, 2.65. `CNC(=O)Oc1cccc(C(=O)OC)c1` gave a logP of 1.42.

`CNC(=O)Oc1ccc(C(C)(C)C)cc1`: the logP stood at 3.06. Regarding `CNC(=O)Oc1ccccc1F`, the logP came out at 1.25. As for `CNC(=O)Oc1ccc(SC)cc1`, the figure is 1.92; as for `CNC(=O)Oc1cccc(C(F)(F)F)c1`, 2.37; as for `CNC(=O)Oc1ccc(C(C)=O)cc1`, 1.01. As for `CNC(=O)Oc1cccc(F)c1`, the logP was 1.48. As for `CNC(=O)Oc1cc(C)ccc1C(C)(C)C`, the figure is 3.14. As for `CNC(=O)Oc1ccc(Cl)c(C)c1`, the figure is 2.57. In the case of `CNC(=O)Oc1ccccc1C(C)C`, the lipophilicity (logP) worked out at 2.31. `CNC(=O)Oc1ccc(C(=O)OC)cc1` gave a logP of 1.5. As for `CCCCOc1cccc(OC(=O)NC)c1`, the figure is 2.96; as for `CNC(=O)Oc1cccc(C(C)C)c1`, 2.63.

In turn, `CCC(C)c1ccc(OC(=O)NC)cc1` (stereo unspecified) had a logP of 3.2. As for `CNC(=O)Oc1ccc(C=O)cc1`, the figure is 0.99; as for `CNC(=O)Oc1ccccc1[N+](=O)[O-]`, 1.02. Compound `CNC(=O)Oc1cccc(C)c1C` showed a logP of 1.95.

In general, logP refers to a log measure of how a compound divides between an organic and an aqueous phase.
